Laboratory results: ChEMBL document CHEMBL5728358, “JAK1 selective inhibitors” (2021)
pIC50: −log10 of the molar value.

Biological target: Tyrosine-protein kinase JAK1 (Homo sapiens, UniProt P23458)
Assay: JAK enzyme was expressed as N-terminal GST fusion in insect cells and purified by glutathione-affinity and size-exclusion chromatographies. […] Phosphorylated and unphosphotylated peptides were separated and quantified by a Caliper LC3000 system (Caliper Life Sciences, MA) for calculating percent inhibition.
Format: organism-based

Tyrosine-protein kinase JAK1, sequence (P23458 whole entry, the tested form may be a part): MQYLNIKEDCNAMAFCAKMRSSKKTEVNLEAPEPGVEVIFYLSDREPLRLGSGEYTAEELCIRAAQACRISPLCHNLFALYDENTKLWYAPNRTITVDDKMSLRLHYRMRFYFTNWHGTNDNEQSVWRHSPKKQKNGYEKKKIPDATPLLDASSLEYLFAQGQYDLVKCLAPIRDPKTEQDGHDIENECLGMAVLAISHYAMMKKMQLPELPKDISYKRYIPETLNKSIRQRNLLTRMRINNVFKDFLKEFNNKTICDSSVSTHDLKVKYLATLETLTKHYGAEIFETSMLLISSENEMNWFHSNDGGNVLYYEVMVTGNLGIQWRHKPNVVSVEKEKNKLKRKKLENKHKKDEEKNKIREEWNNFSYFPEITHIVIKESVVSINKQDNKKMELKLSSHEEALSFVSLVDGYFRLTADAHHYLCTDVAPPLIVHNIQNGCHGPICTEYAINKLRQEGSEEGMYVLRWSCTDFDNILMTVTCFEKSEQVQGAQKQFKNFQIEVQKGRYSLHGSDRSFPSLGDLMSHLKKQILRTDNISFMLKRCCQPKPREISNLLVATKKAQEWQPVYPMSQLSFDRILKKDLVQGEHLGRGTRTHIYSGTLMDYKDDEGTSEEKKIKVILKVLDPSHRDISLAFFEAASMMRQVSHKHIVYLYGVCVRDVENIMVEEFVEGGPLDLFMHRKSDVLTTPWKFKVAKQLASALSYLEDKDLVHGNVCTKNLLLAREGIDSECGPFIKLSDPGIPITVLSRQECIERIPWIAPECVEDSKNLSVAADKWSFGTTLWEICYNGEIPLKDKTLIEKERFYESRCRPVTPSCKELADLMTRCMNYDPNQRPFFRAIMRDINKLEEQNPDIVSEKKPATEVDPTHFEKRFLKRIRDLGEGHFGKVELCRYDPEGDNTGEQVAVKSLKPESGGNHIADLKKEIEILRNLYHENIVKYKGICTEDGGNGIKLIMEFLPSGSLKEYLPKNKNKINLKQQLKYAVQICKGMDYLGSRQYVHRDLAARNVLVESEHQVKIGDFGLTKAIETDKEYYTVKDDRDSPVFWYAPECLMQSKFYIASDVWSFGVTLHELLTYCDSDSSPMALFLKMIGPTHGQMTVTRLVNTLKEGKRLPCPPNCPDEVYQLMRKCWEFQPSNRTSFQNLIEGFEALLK

Q: How did the pIC50 turn out when `Cc1cnc(Nc2cccc(S(C)(=O)=O)c2F)nc1-c1c[nH]c2c(NC(=O)[C@@H](C)N3C[C@H](C)N[C@@H](C)C3)cccc12` was run?
A: 8.47
